The record followed here is patent publication US20230295113A1, “NLRP3 MODULATORS” (ZOMAGEN BIOSCIENCES LTD, priority 2022, published 2023).

The first experiment relates to IL-1b. Kind of experiment: Human Monocyte IL-1b Assay. The settings on record: Homo sapiens, Monocyte, fresh human whole blood; compound 0.5 h, 100 ng/mL LPS 3.5 h at 37° C., 5 mM ATP 45 min; IL-1b in supernatant by ELISA. The format is cell-based. As to the method: Example 46: Human Monocyte IL-1b Assay
Serially diluted testing compounds were incubated with […] of fresh human whole blood for 0.5 hours. Cells were primed with 100 ng/mL lipopolysaccharide (LPS) for 3.5 hours at 37° C. followed by stimulation with 5 mM ATP for an additional 45 minutes. The concentration of IL-1b concentration in the supernatant was determined with commercially available ELISA kits. Negative controls are wells without stimulation, while positive controls are wells with stimulation but only DMSO without compounds added. After background subtraction, compound treatment wells were then normalized to the positive controls for IC50 calculations.
On to `CN1CCC[C@@H]([C@@H](O)c2nnc(-c3ccc(C(F)(F)F)cc3O)c3c2CCC3)C1` (racemic) [Compound 43A, 2-(4-((R)-hydroxy((R)-1-methylpiperidin-3-yl)methyl)-6,7-dihydro-5H-cyclopenta[d]pyridazin-1-yl)-5-(trifluoromethyl)phenol], for which the IC50 is less than 500 nM.
The compound `Cc1c(-c2ccc(C(F)(F)F)cc2O)nnc(C(O)C2CCCN(C)C2)c1C` (stereo not drawn) [Compound 1, 2-(6-(hydroxy(1-methylpiperidin-3-yl)methyl)-4,5-dimethylpyridazin-3-yl)-5-(trifluoromethyl)phenol] showed an IC50 of 500 to 3000 nM.
The compound `Cc1c(C(=O)C2CCCN(C)C2)nnc(-c2ccc(C(F)(F)F)cc2O)c1C` (stereo not drawn) [Compound 2, (6-(2-hydroxy-4-(trifluoromethyl)phenyl)-4,5-dimethylpyridazin-3-yl)(1-methylpiperidin-3-yl)methanone] had an IC50 of 500 to 3000 nM.
`Cc1c(-c2ccc(C(F)(F)F)cc2O)nnc(C(C)(O)C2CCCN(C)C2)c1C` (stereo not drawn) [Compound 3, 2-(6-(1-hydroxy-1-(1-methylpiperidin-3-yl)ethyl)-4,5-dimethylpyridazin-3-yl)-5-(trifluoromethyl)phenol] gave an IC50 of less than 500 nM.
`Cc1c(-c2ccc(C(F)(F)F)cc2O)nnc(C(F)c2cccnc2)c1C` (stereo not drawn) [Compound 4, 2-(6-(fluoro(pyridin-3-yl)methyl)-4,5-dimethylpyridazin-3-yl)-5-(trifluoromethyl)phenol] yielded an IC50 of 3000 to 10000 nM.
Still for that read-out and setting: for `Cc1c(CC2CCCN(C)C2)nnc(-c2ccc(C(F)(F)F)cc2O)c1C` (stereo not drawn) [Compound 5, 2-(4,5-dimethyl-6-((1-methylpiperidin-3-yl)methyl)pyridazin-3-yl)-5-(trifluoromethyl)phenol] the value was less than 500 nM.
`COC(c1nnc(-c2ccc(C(F)(F)F)cc2O)c(C)c1C)C1CCCN(C)C1` (stereo not drawn) [Compound 6, 2-(6-(methoxy(1-methylpiperidin-3-yl)methyl)-4,5-dimethylpyridazin-3-yl)-5-(trifluoromethyl)phenol] showed an IC50 of 500 to 3000 nM.
`Cc1cc(O)c(-c2ccc(CC3CCCN(C)C3)nn2)c(F)c1` (stereo not drawn) [Compound 7, 3-fluoro-5-methyl-2-(6-((1-methylpiperidin-3-yl)methyl)pyridazin-3-yl)phenol] yielded an IC50 of less than 500 nM.
`Cc1cc(O)c(-c2ccc(C(O)C3CCCN(C)C3)nn2)c(F)c1` (stereo not drawn) [Compound 8, 3-fluoro-2-(6-(hydroxy(1-methylpiperidin-3-yl)methyl)pyridazin-3-yl)-5-methylphenol]: the IC50 is less than 500 nM.
`CN1CCCC(C(O)c2nnc(-c3ccc(C(F)(F)F)cc3O)c3ccccc23)C1` (stereo not drawn) [Compound 9, 2-(4-(hydroxy(1-methylpiperidin-3-yl)methyl)phthalazin-1-yl)-5-(trifluoromethyl)phenol] registered an IC50 of less than 500 nM.
Compound `Cc1cc(C(O)c2cccnc2)nnc1-c1ccc(C(F)(F)F)cc1O` (stereo not drawn) [Compound 10, 2-(6-(hydroxy(pyridin-3-yl)methyl)-4-methylpyridazin-3-yl)-5-(trifluoromethyl)phenol] yielded an IC50 of 3000 to 10000 nM.
`Cc1cc(C(O)C2CCCN(C)C2)nnc1-c1ccc(C(F)(F)F)cc1O` (stereo not drawn) [Compound 11, 2-(6-(hydroxy(1-methylpiperidin-3-yl)methyl)-4-methylpyridazin-3-yl)-5-(trifluoromethyl)phenol]: the IC50 is less than 500 nM.
Still for that read-out and setting: to `Cc1cc(-c2ccc(C(F)(F)F)cc2O)nnc1C(O)C1CCCN(C)C1` (stereo not drawn) [Compound 12, 2-(6-(hydroxy(1-methylpiperidin-3-yl)methyl)-5-methylpyridazin-3-yl)-5-(trifluoromethyl)phenol] belongs 500 to 3000 nM; to `Cc1cc(C(=O)c2cccnc2)nnc1-c1ccc(C(F)(F)F)cc1O` [Compound 13, (6-(2-hydroxy-4-(trifluoromethyl)phenyl)-5-methylpyridazin-3-yl)(pyridin-3-yl)methanone], 500 to 3000 nM.
The same measure, in the same setting: to `Cc1cc(C(=O)C2CCCN(C)C2)nnc1-c1ccc(C(F)(F)F)cc1O` (stereo not drawn) [Compound 14, (6-(2-hydroxy-4-(trifluoromethyl)phenyl)-5-methylpyridazin-3-yl)(1-methylpiperidin-3-yl)methanone] belongs less than 500 nM.
`Cc1cc(C(C)(O)C2CCCN(C)C2)nnc1-c1ccc(C(F)(F)F)cc1O` (stereo not drawn) [Compound 15, 2-(6-(1-hydroxy-1-(1-methylpiperidin-3-yl)ethyl)-4-methylpyridazin-3-yl)-5-(trifluoromethyl)phenol]: the IC50 was less than 500 nM.
`Cc1cc(C(=NO)C2CCCN(C)C2)nnc1-c1ccc(C(F)(F)F)cc1O` (stereo not drawn) [Compound 16, (6-(2-hydroxy-4-(trifluoromethyl)phenyl)-5-methylpyridazin-3-yl)(1-methylpiperidin-3-yl)methanone oxime]: the IC50 is less than 500 nM.
Still for that read-out and setting: to `Cc1cc([C@@H](O)[C@@H]2CCCN(C)C2)nnc1-c1ccc(C(F)(F)F)cc1O` [Compound 17A, 2-(6-((S)-hydroxy((R)-1-methylpiperidin-3-yl)methyl)-4-methylpyridazin-3-yl)-5-(trifluoromethyl)phenol] belongs less than 500 nM.
`Cc1cc([C@H](O)[C@@H]2CCCN(C)C2)nnc1-c1ccc(C(F)(F)F)cc1O` [Compound 17B, 2-(6-((R)-hydroxy((R)-1-methylpiperidin-3-yl)methyl)-4-methylpyridazin-3-yl)-5-(trifluoromethyl)phenol] showed an IC50 of less than 500 nM.
On to `Cc1cc([C@H](O)[C@H]2CCCN(C)C2)nnc1-c1ccc(C(F)(F)F)cc1O` [Compound 17C, 2-(6-((R)-hydroxy((S)-1-methylpiperidin-3-yl)methyl)-4-methylpyridazin-3-yl)-5-(trifluoromethyl)phenol], for which the IC50 was less than 500 nM.
`Cc1cc([C@@H](O)[C@H]2CCCN(C)C2)nnc1-c1ccc(C(F)(F)F)cc1O` [Compound 17D, 2-(6-((S)-hydroxy((S)-1-methylpiperidin-3-yl)methyl)-4-methylpyridazin-3-yl)-5-(trifluoromethyl)phenol]: the IC50 fell in the range of 500 to 3000 nM.
`[2H][C@@](O)(c1cc(C)c(-c2ccc(C(F)(F)F)cc2O)nn1)[C@@H]1CCCN(C)C1` [Compound 18, 2-(6-((S)-hydroxy((R)-1-methylpiperidin-3-yl)methyl-d)-4-methylpyridazin-3-yl)-5-(trifluoromethyl)phenol] yielded an IC50 of less than 500 nM.
Regarding `Cc1cc(C)c(-c2ccc(C(O)C3CCCN(C)C3)nn2)c(O)c1` (stereo not drawn) [Compound 19, 2-(6-(hydroxy(1-methylpiperidin-3-yl)methyl)pyridazin-3-yl)-3,5-dimethylphenol], the IC50 is less than 500 nM.
Same read-out and setting: for `Cc1cc(C(F)(F)F)cc(O)c1-c1ccc(C(O)C2CCCN(C)C2)nn1` (stereo not drawn) [Compound 20, 2-(6-(hydroxy(1-methylpiperidin-3-yl)methyl)pyridazin-3-yl)-3-methyl-5-(trifluoromethyl)phenol] the value was less than 500 nM; for `Oc1cc(C(F)(F)F)ccc1-c1ccc(CC2(O)CCCNC2)nn1` (stereo not drawn) [Compound 21, 3-((6-(2-hydroxy-4-(trifluoromethyl)phenyl)pyridazin-3-yl)methyl)piperidin-3-ol], 3000 to 10000 nM.
`CC(c1nnc(-c2ccc(C(F)(F)F)cc2O)c2ccccc12)C1CCCNC1` (stereo not drawn) [Compound 22, 2-(4-(1-(piperidin-3-yl)ethyl)phthalazin-1-yl)-5-(trifluoromethyl)phenol] yielded an IC50 of less than 500 nM.
On the same count and under the same terms, to `CN1CCC(=O)C(C(O)c2ccc(-c3ccc(C(F)(F)F)cc3O)nn2)C1` (stereo not drawn) [Compound 23, 3-(hydroxy(6-(2-hydroxy-4-(trifluoromethyl)phenyl)pyridazin-3-yl)methyl)-1-methylpiperidin-4-one] belongs 3000 to 10000 nM; to `COc1cc(C(F)(F)F)ccc1-c1nnc([C@H](O)[C@@H]2CCCN(C)C2)cc1C` [Compound 24, (R)-(6-(2-methoxy-4-(trifluoromethyl)phenyl)-5-methylpyridazin-3-yl)((R)-1-methylpiperidin-3-yl)methanol], less than 500 nM.
In turn, `Cc1cc([C@H](O)[C@@H]2CCCN(C3CC3)C2)nnc1-c1ccc(C(F)(F)F)cc1O` [Compound 25, 2-(6-((R)-((R)-1-cyclopropylpiperidin-3-yl)(hydroxy)methyl)-4-methylpyridazin-3-yl)-5-(trifluoromethyl)phenol] displayed an IC50 of less than 500 nM.
In turn, `Cc1cc(C(O)[C@@H]2CCN(C)C2)nnc1-c1ccc(C(F)(F)F)cc1O` (stereo partly drawn) [Compound 26, 2-(6-(hydroxy((R)-1-methylpyrrolidin-3-yl)methyl)-4-methylpyridazin-3-yl)-5-(trifluoromethyl)phenol] returned an IC50 of less than 500 nM.
The compound `Cc1cc([C@H](O)[C@]2(C)CCCN(C)C2)nnc1-c1ccc(C(F)(F)F)cc1O` [Compound 27A, 2-(6-((R)-((R)-1,3-dimethylpiperidin-3-yl)(hydroxy)methyl)-4-methylpyridazin-3-yl)-5-(trifluoromethyl)phenol] yielded an IC50 of 500 to 3000 nM.

Staying with this experiment, now noted: fresh human whole blood; compound 0.5 h, 100 ng/mL LPS 3.5 h at 37° C., 5 mM ATP 45 min; IL-1b in supernatant by ELISA.
As for `CN1CCC[C@@H]([C@@H](O)c2nnc(-c3ccc(C(F)(F)F)cc3O)c3c2CCC3)C1` (racemic) [Compound 43B, 2-(4-((R/S)-hydroxy((R/S)-1-methylpiperidin-3-yl)methyl)-6,7-dihydro-5H-cyclopenta[d]pyridazin-1-yl)-5-(trifluoromethyl)phenol], the IC50 lay within 500 to 3000 nM.
With `CN1CCC[C@@H]([C@@H](O)c2nnc(-c3ccc(C(F)(F)F)cc3O)c3c2CCC3)C1` (racemic) [Compound 44, 2-(4-((R)-hydroxy((R)-1-methylpiperidin-3-yl)methyl)-6,7-dihydro-5H-cyclopenta[d]pyridazin-1-yl)-5-(trifluoromethyl)phenol], the IC50 is less than 500 nM.

For orientation: IC50 means the point on the concentration scale where inhibition reaches its midpoint. A high value points to a need for much substance.
